Measured values as given in ChEMBL document CHEMBL4725277, “Synthetic and therapeutic perspectives of nitrogen containing heterocycles as anti-convulsants” (Bioorg Med Chem, 2020).

Assays:
[1] = species: Mus musculus; assay: Anticonvulsant activity in albino mouse assessed as pentylenetetrazole-induced seizure; assay type: functional
[2] = species: Mus musculus; assay: Anticonvulsant activity in mouse assessed as protection against current-induced seizure by maximal electroshock seizure test; assay type: functional
[3] = Neurotoxicity in mouse by rotarod test; assay type: toxicity; conditions: in vivo
[4] = Protective index, ratio of TD50 for neurotoxicity in mouse to ED50 for anticonvulsant activity in mouse assessed as protection against current-induced seizure; assay type: toxicity; conditions: in vivo, read-out: PI
[5] = Protective index, ratio of TD50 for neurotoxicity in mouse to ED50 for anticonvulsant activity in mouse assessed as protection against pentylenetetrazole-induced seizure; assay type: toxicity; conditions: in vivo, read-out: PI
[6] = species: Mus musculus; assay: Anticonvulsant activity in albino mouse assessed as pentylenetetrazole-induced seizure measured after 30 mins; assay type: functional; conditions: 0.5 h
[7] = Neurotoxicity in albino rat at 100 mg/kg, ip after 30 mins (reference value: 2%); assay type: toxicity, organism-based; conditions: in vivo, 0.5 h
[8] = species: Mus musculus; assay: Anticonvulsant activity in albino mouse assessed as protection against 50 mA current-induced seizure by maximal electroshock seizure test; assay type: functional
[9] = system: Mus musculus; assay: Anticonvulsant activity in albino mouse assessed as protection against 50 mA current-induced seizure at 25 mg/kg by maximal electroshock seizure test relative to control; assay type: functional
[10] = Lipophilicity, log P of the compound; assay type: physicochemical; conditions: octanol/water
[11] = system: Mus musculus; assay: Anticonvulsant activity in ip injected albino mouse assessed as protection against 50 mA current-induced seizure after 0.5 to 4 hrs interval by maximal electroshock seizure test; assay type: functional; conditions: time hrs 0.5-4
[12] = Neurotoxicity in ip injected albino mouse; assay type: toxicity, organism-based; conditions: in vivo
[13] = Protective index, ratio of TD50 for neurotoxicity in ip injected albino mouse to ED50 for anticonvulsant activity in ip injected albino mouse assessed as protection against 50 mA current-induced seizure; assay type: toxicity, organism-based; conditions: in vivo, read-out: Ratio
[14] = Protective index, ratio of TD50 for neurotoxicity in ip injected albino mouse to ED50 for anticonvulsant activity in albino mouse assessed as pentylenetetrazole-induced seizure; assay type: toxicity, organism-based; conditions: in vivo, read-out: Ratio
[15] = species: Mus musculus; assay: Anticonvulsant activity in albino mouse assessed as current-induced seizure relative to control; assay type: functional
[16] = species: Mus musculus; assay: Anticonvulsant activity in albino mouse assessed as current-induced seizure latency time; assay type: functional
[17] = Protective index, ratio of TD50 for neurotoxicity in mouse to ED50 for anticonvulsant activity in mouse assessed as protection against 50 mA current-induced seizure; assay type: toxicity; conditions: in vivo, read-out: PI
[18] = species: Mus musculus; assay: Anticonvulsant activity in mouse assessed as protection against 50 mA current-induced seizure after 0.5 hrs by maximal electroshock seizure test; assay type: functional
[19] = species: Mus musculus; assay: Anticonvulsant activity in KunMing mouse assessed as protection against current-induced seizure by maximal electroshock seizure test; assay type: functional
[20] = species: Mus musculus; assay: Anticonvulsant activity in KunMing mouse assessed as protection against pentylenetetrazole-induced seizure by maximal electroshock seizure test; assay type: functional
[21] = Neurotoxicity in KunMing mouse by rotarod test; assay type: toxicity; conditions: KunMing, in vivo, read-out: TD50
[22] = Protective index, ratio of TD50 for neurotoxicity in KunMing mouse to ED50 for anticonvulsant activity in KunMing mouse assessed as protection against pentylenetetrazole-induced seizure; assay type: toxicity; conditions: in vivo, read-out: PI
[23] = Protective index, ratio of TD50 for neurotoxicity in KunMing mouse to ED50 for anticonvulsant activity in KunMing mouse assessed as protection against current-induced seizure; assay type: toxicity; conditions: in vivo, read-out: PI
[24] = species: Mus musculus; assay: Anticonvulsant activity in KunMing mouse assessed as protection against 50 mA current-induced seizure after 30 mins interval by maximal electroshock seizure test; assay type: functional; conditions: 0.5 h
[25] = Neurotoxicity in KunMing mouse after 30 mins by rotarod test; assay type: toxicity; conditions: in vivo
[26] = Protective index, ratio of TD50 for neurotoxicity in KunMing mouse to ED50 for anticonvulsant activity in KunMing mouse assessed as protection against 50 mA current-induced seizure; assay type: toxicity; conditions: in vivo, read-out: PI
[27] = Neurotoxicity in ip and po injected mouse; assay type: toxicity, organism-based; conditions: in vivo
[28] = Protective index, ratio of TD50 for neurotoxicity in ip and po injected mouse to ED50 for anticonvulsant activity in mouse assessed as protection against 50 mA current-induced seizure; assay type: toxicity, organism-based; conditions: in vivo, read-out: PI
[29] = system: Mus musculus; assay: Anticonvulsant activity in ip injected albino mouse assessed as protection against 50 mA current-induced seizure by maximal electroshock seizure test; assay type: functional

## CN(C)c1ccc(C2CC(c3ccccc3)=NC(=S)N2C(=S)Nc2ccccc2)cc1 (configuration not stated)
[1]
  ED50: 332 mg/kg
[2]
  ED50: 32.2 mg/kg
[3]
  TD50: 580 mg/kg
[4]
  selectivity ratio: 18
[5]
  selectivity ratio: 1.7

## CN1C(=O)CN=C(c2ccccc2)c2cc(Cl)ccc21 [DIAZEPAM]
[6]
  ED50: 0.7 mg/kg
[7]
  Activity: 88%
[8]
  ED50: 0.8 mg/kg

## Clc1ccc(Nc2nnc(-c3ccncc3)s2)cc1
[9]
  Activity: 100%

## COc1ccc(-c2nc(N/N=C/c3ccc(O)cc3)[nH]c(=O)c2C#N)cc1
[10]
  logP: 1.27

## CN(C)Nc1ccc(/C=N/Nc2nnc(-c3ccccc3)nc2Cc2ccc(Cl)cc2)cc1
[6]
  ED50: 83.9 mg/kg
[11]
  ED50: 46 mg/kg
[12]
  TD50: 360 mg/kg
[13]
  selectivity ratio: 7.82
[14]
  selectivity ratio: 4.29

## COc1ccc(-c2nc(N/N=C/c3cccc(F)c3)[nH]c(=O)c2C#N)cc1
[10]
  logP: 2.13

## CC(=O)Oc1cc2ccccc2cc1-c1nnc(N(CCc2ccccc2)C(C)=O)s1
[15]
  Activity: 90%
[16]
  Time: 5.92 min

## FC(F)(F)c1cccc(COc2nn3cnnc3c3ccccc23)c1
[17]
  selectivity ratio: 91.7
[18]; Mus musculus, read-out: ED50
  ED50: 9.3 mg/kg
[3]
  TD50: 853 mg/kg

## O=C1N=C([O-])NC1(c1ccccc1)c1ccccc1.[Na+] [PHENYTOIN SODIUM]
[9]
  Activity: 100%

## CCCC(CCC)C(=O)O [VALPROIC ACID]
[16]
  Time: 7.2 min

## Clc1ccc(C2Cc3nncn3-c3ccsc32)cc1 (configuration not stated)
[19]
  ED50: 9.5 mg/kg
[20]
  ED50: 20.5 mg/kg
[21]
  TD50: 456 mg/kg
[22]
  selectivity ratio: 22.2
[23]
  selectivity ratio: 48

## Nc1nnc(-c2ccccc2OCc2ccccc2F)o1
[6]
  ED50: 9 mg/kg
[8]
  ED50: 16.2 mg/kg

## CCCCCCOc1ccc2c(c1)CCc1nnc(C(N)=O)n1-2
[24]
  ED50: 30.1 mg/kg
[25]
  TD50 at 0.5 h: 286 mg/kg
[26]
  selectivity ratio: 9.5

## O=c1c2ccccc2n2cnnc2n1-c1ccc(Br)cc1
[18]
  ED50: 26.89
[27]
  TD50: > 700 mg/kg
[28]
  selectivity ratio: > 26

## O=c1c2ccccc2n2cnnc2n1-c1ccc(Cl)cc1
[18]
  ED50: 27.39
[27]
  TD50: > 700 mg/kg
[28]
  selectivity ratio: > 25.6

## Nc1nc(-c2ccccc2)nnc1C(=O)N1CCCC1c1noc2cc(Cl)ccc12 (configuration not stated)
[12]
  TD50: 103 mg/kg
[13]
  selectivity ratio: > 18
[29]
  ED50: 5.7 mg/kg

## Nc1nc(-c2ccccc2)nnc1C(=O)N1CCCC1c1noc2cc(F)ccc12 (configuration not stated)
[12]
  TD50: > 300 mg/kg
[13]
  selectivity ratio: > 48.4
[29]
  ED50: 6.2 mg/kg

## CN(C)CCOc1ccc2c(c1)C(=O)C(=O)N2
[7]
  Activity: 7%

## COc1ccc(-c2nc(N/N=C/c3ccc(Br)cc3)[nH]c(=O)c2C#N)cc1
[10]
  logP: 2.45
